Format in all cases: functional, cell-based
The test system of assay [1] is A549. In words: Antiproliferative activity against human A549 cells assessed as inhibition of cell growth incubated for 72 hrs by MTT assay. Conditions: A549, 72 h. A general note: Formazan colour is commonly taken as a measure of viable cells.
Assay [2] relates to NCI-H2228. Kind of assay: Antiproliferative activity against human EML4-ALK positive H2228 cells assessed as inhibition of cell growth incubated for 72 hrs by MTT assay. Conditions: NCI-H2228, 72 h.
The subject of assay [3] is A549. Kind of assay: Inhibition of epithelial-mesenchymal transition in human A549 cells assessed as suppression of Twist 1 expression at 17 uM measured after 24 hrs by Western blot analysis. In general terms: A western blot detects proteins with antibodies after separation by electrophoresis.
In assay [4] the test system is A549. In words: Inhibition of epithelial-mesenchymal transition in human A549 cells assessed as suppression of Twist 1 expression measured after 24 hrs by Western blot analysis. Conditions: dose 0.5-2 µM.
In assay [5] the test system is A549. Kind of assay: Induction of apoptosis in human A549 cells by flow cytometry analysis.

Molecules are shown by their SMILES. Activity calls are given as the source filed them. No cut-off for these calls is given here.

In the case of `CCN(CC)Cc1nnc(-c2c(C)nc3sc4ccccc4n23)o1`, the values for the IC50 in assay [1] and in assay [2] were 10.7 µM and 21.6 µM, respectively.

Take `Cc1nc2sc3ccccc3n2c1-c1nnc(CNCCO)o1`: the IC50 (as a rule, the concentration that inhibits the measured activity by half) in assay [1] was 8.46 µM; in assay [2], 17.8 µM.

As to `Cc1nc2sc3ccccc3n2c1-c1nnc(CCN2CC(O)C2)o1`, the IC50 in assay [1] was 9.63 µM; in assay [2], 22.5 µM.

Regarding `Cc1nc2sc3ccccc3n2c1-c1nnc(CCN2CCN(CCO)CC2)o1`, the IC50 in assay [1] came out at 6.95 µM; in assay [2], 14 µM.

`Cc1nc2sc3ccccc3n2c1-c1nnc(CN2CCC(O)CC2)o1`: the IC50 in assay [1] is 15 µM; in assay [2] it was 12.2 µM.

`Cc1nc2sc3ccccc3n2c1-c1nnc(CCN(C)C)o1`: the figures for the IC50 in assay [1] and in assay [2] were 11.9 µM and 19 µM, respectively.

As for `Cc1nc2sc3ccccc3n2c1-c1nnc(CCNC2CCCC2)o1`, the IC50 in assay [1] stood at 15 µM; in assay [2], 18.6 µM.

Consider `Cc1nc2sc3ccccc3n2c1-c1nnc(CN2CCCC2)o1`, for which the IC50 in assay [1] stood at 7.7 µM; in assay [2], 26.5 µM.

Turning to `Cc1nc2sc3ccccc3n2c1-c1nnc(CNC2CCCC2)o1`, the values for the IC50 in assay [1] and in assay [2] were 3.92 µM and 17.4 µM, respectively.

Regarding `COc1ccc2c(c1)[nH]c1c(C)nccc12` [HARMINE], the IC50 turned out to be 17.1 µM in assay [1] and 31.1 µM in assay [2]. Moreover, the outcome in assay [3] was Active.

Regarding `Cc1nc2sc3ccccc3n2c1-c1nnc(CCN2CCCC2)o1`, the 50% inhibitory concentration (IC50) in assay [1] was 12.2 µM; in assay [2], 23.5 µM.

Take `Cc1nc2sc3ccccc3n2c1-c1nnc(CCN2CCC(O)CC2)o1`: the IC50 in assay [1] was determined as 7.66 µM; in assay [2], 15.4 µM.

`CCCN1CCN(CCc2nnc(-c3c(C)nc4sc5ccccc5n34)o2)CC1`: the concentration for half-maximal inhibition (IC50) was determined as 11.1 µM in assay [1] and 22.2 µM in assay [2].

Regarding `Cc1nc2sc3ccccc3n2c1-c1nnc(CCNCCO)o1`, the IC50 in assay [1] stood at 10.7 µM; in assay [2], 16.5 µM.

Turning to `Cc1nc2sc3ccccc3n2c1-c1nnc(CCN2CCC(C)CC2)o1`, the IC50 in assay [1] is 2.38 µM; in assay [2], 13.4 µM.

Consider `Cc1nc2sc3ccccc3n2c1-c1nnc(CN(C)C)o1`, for which the results for the IC50 in assay [1] and in assay [2] were 9.26 µM and 15.3 µM, respectively.

As to `CCN(CC)CCc1nnc(-c2c(C)nc3sc4ccccc4n23)o1`, the values for the IC50 in assay [1] and in assay [2] were 9.55 µM and 23.9 µM, respectively.

Regarding `Cc1nc2sc3ccccc3n2c1-c1nnc(CN2CCCCC2)o1`, the IC50 in assay [1] came out at 15.1 µM; in assay [2], 19.2 µM.

With `Cc1nc2sc3ccccc3n2c1-c1nnc(CN2CC(O)C2)o1`, the IC50 turned out to be 12.3 µM in assay [1] and 27.2 µM in assay [2].

Consider `Cc1nc2sc3ccccc3n2c1-c1nnc(CN2CCC(C)CC2)o1`, for which the concentration for half-maximal inhibition (IC50) is 12.8 µM in assay [1] and 23.1 µM in assay [2].

Consider `Cc1nc2sc3ccccc3n2c1-c1nnc(CCN2CCCCC2)o1`, for which the IC50 in assay [1] turned out to be 2.03 µM; in assay [2], 9.8 µM. In addition, the Activity result in assay [4] is “Dose-Dependent Effect”. Further, the outcome in assay [5] was inactive.

Turning to `Cc1nc2sc3ccccc3n2c1-c1nnc(CN2CCN(CCO)CC2)o1`, the IC50 in assay [1] came out at 4.41 µM; in assay [2] it was 14.9 µM.

For the compound `CCCN1CCN(Cc2nnc(-c3c(C)nc4sc5ccccc5n34)o2)CC1`, the figures for the IC50 in assay [1] and in assay [2] were 13.7 µM and 21.8 µM, respectively.

The values above are taken from ChEMBL document CHEMBL4808243, “Harmine-inspired design and synthesis of benzo[d]imidazo[2,1-b]thiazole derivatives bearing 1,3,4-oxadiazole moiety as potential tumor suppressors” (Bioorg Med Chem, 2021).
